Experimental data as given in PMC12867150, “A fungi-derived cyclic peptide enhances Th9-mediated antitumor immunity by targeting ZAP70 and SREBP1” (The Journal of Clinical Investigation, 2025).

Legend:
[1] = tested on: AKT, mTOR, and NF-κB signaling components; experiment: Immunoblot of AKT, mTOR and NF-κB components (S7D); assay type: cell-based, mouse; conditions: result in words
Description: Detailed lysis conditions, SDS–PAGE and transfer procedures, primary/secondary antibodies (including clones and catalog numbers), molecular weight markers, ECL detection, and ImageJ (NIH) quantification are described in Supplemental Methods.
MH9A4, Biolegend, Cat. No. 507605, PE/Cy7, clone MH9A4, Biolegend, Cat. No. […]
clone Mab11, Biolegend, Cat. No. 502908), Perforin (APC, clone dG9, Biolegend, Cat.
Flow cytometric acquisition was performed using a BD Fortessa or Cytek Aurora cytometer. Data were analyzed with FlowJo software (v10.8.1 or newer). Fluorescence compensation, isotype-matched controls, and fluorescence-minus-one (FMO) controls were applied as appropriate for multicolor panel validation.
Cells were washed twice with PBS and lysed in 1 × lysis buffer (NCM, Cat. No.
WB3100) supplemented with a protease inhibitor cocktail (Solarbio, Cat. No. P1260).
Protein lysates were separated by SDS-polyacrylamide gel electrophoresis (SDS-PA G E ; YEASEN, Cat. No. 20325ES62) and transferred to PVDF membranes for […]
Membranes were probed with the following primary antibodies: ERK1/2 (clone […]
BioLegend, Cat. No. 369502), MEK1/2 (clone L38C12, Cell Signaling Technology, Cat.
No. 4694S), phospho -MEK1/2 (clone 41G9, Cell Signaling Technology, Cat. No. […]
(Proteintech, Cat. No. 10745 -1-AP), Total Akt (Cell Signaling Technolo gy, Cat. No. […]

[2] = tested on: Raji lymphoma cells
Description: For infection, human T cells were activated for 40 hours with plate-bound anti-CD3 (BioLegend, clone OKT3, 5 μg/mL) and soluble anti-CD28 antibodies (BioLegend, clone CD28.2, 2 μg/mL) antibodies and then resuspended in viral supernatant (MOI = 5) supplemented with recombinant human IL-2 (100 U/mL) and polybrene (10 μg/mL). The cell-virus mixture was subjected to spinoculation at 550g for 2 hours at room temperature, followed by incubation for 24 hours. Transduced CAR T cells were harvested on days 5 or 7 after activation for downstream functional assays.
The cytotoxic activity of CD19-targeting CAR T cells was evaluated using a luciferase-based bioluminescence assay. Raji cells stably expressing firefly luciferase (ffLuc) were resuspended in RPMI 1640 medium supplemented with 10% FBS and seeded into 24-well plates. CAR T cells were added at various effector-to-target (E:T) ratios, while tumor-only wells were included as negative controls. After 20 hours of coculture, 20,000 cells from each tumor-only control well were harvested, washed with PBS, resuspended in 100 μL of lysis buffer, and transferred to a black 96-well plate. Luminescence intensity was measured using a multimode plate reader, and the percentage of specific lysis was calculated as follows: % Cytotoxicity = 1 – (luminescence of coculture well/luminescence of tumor-only control well).

## anteiso-C15 Leu7 surfactin [EpA]
[1]
  AKT and NF-κB component phosphorylation: not of AKT or NF-κB components
  total and phosphorylated mTOR levels: remained unchanged
[2]
  cytotoxicity against Raji cells: significantly greater cytotoxicity
